Experimental data taken from ChEMBL document CHEMBL4689842, “EUbOPEN Chemogenomics Library wave 1” (2021).

What was measured:
Type in all cases: toxicity, cell-based
[1] = tested on: HEK-293T; experiment: Incucyte cell viability with HEK293T; conditions: human, 10 µM, compound concentration 10 uM
[2] = tested on: Fibroblast; experiment: Incucyte cell viability with human fibroblast; conditions: 10 µM, compound concentration 10 uM
[3] = tested on: U2OS; experiment: Incucyte cell viability with U2OS; conditions: human, 10 µM, compound concentration 10 uM
[4] = 0 h, replicate number 2, timepoint 0 hours
[5] = 6 h, replicate number 1, timepoint 6 hours
[6] = 6 h, replicate number 2, timepoint 6 hours
[7] = 12 h, replicate number 1, timepoint 12 hours
[8] = 18 h, replicate number 1, timepoint 18 hours
[9] = 24 h, replicate number 1, timepoint 24 hours
[10] = 0 h, replicate number 1, timepoint 0 hours
[11] = 12 h, replicate number 2, timepoint 12 hours
[12] = 18 h, replicate number 2, timepoint 18 hours
[13] = 24 h, replicate number 2, timepoint 24 hours
Note: filed as whole numbers so only -1 and 0 and 1 occur.

Row | SMILES | Growth Rate [1, 4] | Growth Rate [1, 5] | Growth Rate [1, 7] | Growth Rate [1, 8] | Growth Rate [1, 9] | Growth Rate [2, 10] | Growth Rate [2, 5] | Growth Rate [2, 7] | Growth Rate [2, 8] | Growth Rate [2, 9] | Growth Rate [3, 10] | Growth Rate [3, 7] | Growth Rate [3, 11] | Growth Rate [3, 8] | Growth Rate [3, 9] | Growth Rate [2, 4] | Growth Rate [3, 5] | Growth Rate [3, 13] | Growth Rate [2, 6] | Growth Rate [3, 12] | also measured
1 | S=C=Nc1cccc(NC(=S)NCCCCNC(=S)Nc2cccc(N=C=S)c2)c1 | 0 | 0 | 0 | 0 | 0 | 0 | 0 | 0 | 0 | 0 | 0 | 1 | 0 | 0 | 0 | – | – | – | – | – | Growth Rate [1, 6]: 1; Growth Rate [3, 6]: 0
2 | CC(C)N(CCCNC(=O)Nc1ccc(C(C)(C)C)cc1)C[C@H]1O[C@@H](n2cc(Br)c3c(N)ncnc32)[C@H](O)[C@@H]1O | – | 0 | – | – | 1 | – | – | 1 | 1 | 1 | 0 | 1 | – | 1 | 1 | 0 | 1 | – | – | – | Growth Rate [1, 11]: 0; Growth Rate [1, 12]: 1
3 | O=C(O)C1CN(Cc2ccc(OCc3ccc(Cl)c(Cl)c3)cc2)C1 | 0 | 0 | 0 | 0 | 0 | 1 | 0 | 0 | 0 | 0 | 0 | 1 | 0 | 0 | 1 | – | – | 0 | – | – | Growth Rate [3, 6]: 0
4 | Nc1ncnc2c1ccn2[C@@H]1O[C@H]([C@H](O)c2ccccc2)[C@@H](O)[C@H]1O | 1 | 1 | – | 1 | 1 | – | – | – | 1 | 1 | 0 | 0 | 1 | 0 | 0 | 0 | 0 | 1 | 1 | 1 | Growth Rate [1, 11]: 1; Growth Rate [2, 11]: 0; Growth Rate [2, 13]: 0
5 | Cl.Clc1cccc(COc2cncc(N3CCNCC3)n2)c1 | 1 | 0 | 0 | 0 | 0 | 1 | 1 | – | – | 1 | – | 0 | 1 | 1 | 1 | – | – | – | 0 | – | Growth Rate [2, 11]: 0; Growth Rate [2, 12]: 0; Growth Rate [2, 13]: 0; Growth Rate [3, 6]: 0
6 | O=C(N[C@@H](C1CC1)C(F)(F)F)c1cc(-c2cnn3cc(-c4ccc(F)cc4)cnc23)cs1 | 1 | – | – | – | – | 0 | 1 | 1 | 1 | 1 | – | 0 | – | 0 | 1 | – | 0 | 0 | – | – | Growth Rate [1, 10]: 0; Growth Rate [1, 6]: 1; Growth Rate [1, 11]: 1; Growth Rate [1, 13]: 1; Growth Rate [3, 4]: 1
7 | COc1cc(-c2cn([C@H]3CCc4ccccc4N(CC(F)(F)F)C3=O)nn2)ccc1-n1ccc(C)n1 | 1 | 0 | 0 | 0 | 0 | – | 0 | 0 | 1 | 0 | 0 | 0 | 1 | 0 | 0 | 0 | 0 | – | – | – | Growth Rate [2, 11]: 1; Growth Rate [2, 12]: 0
8 | CCOC(=O)CCNc1cc(N2CCc3ccccc3CC2)nc(-c2cccnc2)n1 | 1 | 0 | 0 | 0 | 0 | – | 1 | 1 | 1 | 1 | – | 1 | 0 | 1 | 1 | 1 | 1 | 0 | 0 | 0 | Growth Rate [2, 12]: 0; Growth Rate [3, 4]: 0
9 | CN(C)C(=O)/C(C#N)=C/c1ccc(-c2nc3cnc4c(ccn4C)c3n2C2CCCCC2)o1 | – | 0 | 0 | 0 | 0 | – | 0 | 0 | 0 | 0 | 0 | 0 | 1 | 0 | 1 | – | 0 | – | 1 | 1 | Growth Rate [3, 6]: 1
10 | CSc1cccnc1N1CCN(Cc2nc3ccccc3[nH]2)CC1 [A-769] | 0 | 0 | 0 | 0 | 0 | 0 | 0 | 0 | 0 | 0 | – | 0 | – | 0 | 1 | 1 | 0 | – | 1 | 1 | Growth Rate [1, 10]: 1; Growth Rate [2, 11]: 1
11 | CCCOc1ccc([C@H]2[C@H](C(=O)O)[C@@H](c3ccc4c(c3)OCO4)CN2CC(=O)Nc2c(CC)cccc2CC)cc1 [A-192621] | – | 0 | 0 | 0 | 0 | 0 | 1 | 1 | 1 | 1 | – | 0 | – | 0 | 0 | 1 | 0 | 1 | 0 | 1 | Growth Rate [1, 10]: 0; Growth Rate [1, 12]: 1
12 | CC#CC(=O)N1CCC[C@H]1c1nc(-c2ccc(C(=O)Nc3ccccn3)cc2)c2c(N)nccn12 [ACALABRUTINIB] | – | 0 | 0 | 0 | 0 | 0 | 1 | 0 | 0 | 1 | 0 | 0 | – | 0 | 1 | – | 0 | 0 | 0 | – | Growth Rate [1, 10]: 1; Growth Rate [1, 12]: 1; Growth Rate [2, 11]: 1; Growth Rate [2, 13]: 0; Growth Rate [3, 4]: 1
13 | Cc1cc([C@@H](C)Nc2ccccc2C(=O)O)c2nc(N3CCOCC3)cc(=O)n2c1 [AZD-6482] | – | 0 | 0 | 0 | 0 | – | 0 | 0 | 0 | 1 | 0 | 0 | 1 | 0 | 0 | 0 | 0 | – | – | 1 | Growth Rate [1, 11]: 1; Growth Rate [1, 13]: 1; Growth Rate [2, 12]: 1; Growth Rate [3, 6]: 1
